# Marks after values point to notes of the source that are not given here.
# Experiments:
# [1] = test system: peptides loaded RMAS (K^b, D^b) cells; assay: In vitro generation of IgE peptide specific CTLs, 51Cr release against peptide loaded RMAS cells; format: cell-based; details: naive mouse CD8 T cells, Drosophila APC with D^b, B7-1, ICAM-1; Day 9
# Description: CD8^+ T cells were purified from lymph nodes of CBF1/J mice (FIGS. 2A, 2B and 2D) or from B6, interferon γ knock out mice (IFNγ^−/−) or perform (PF^−/−) knock out mice (FIG. 2C). The purified CD8 T cells were cultured with indicated IgE peptides presented by SC2 cells transfected with D^b MHC class I, B7-1 (CD80) and ICAM-1 (CD54) molecules. Low dose of recombinant IL-2 (20 units/ml) was added to the culture at Day 3 and every other day thereafter. On Day 9, CTL activity was measured against ^51Cr labeled RMAS cells loaded with or without indicated IgE peptides. In FIG. 2D, anti-D^b mAb (20 μg/ml) was added at the beginning of CTL assay.
# (§1) CTL Assay: Epitope-bearing (target) cells are used as target cells in a ^51 Cr release assay. 5×10^6 target cells in RPMI medium containing 4% fetal calf serum, 1% HEPES buffer and 0.25% gentamycin are labeled at 37° C. for one hour with 0.1 mCi ^51Cr. Cells are washed four times and diluted to 10^5 cells/ml in RPMI with 10% fetal bovine serum (HyClone). In a 96-well microtiter plate, 100 μl effector CTLs and 100 μl peptide-loaded, ^51Cr-labeled target cells are combined at ratios of 100:1, 20:1 and 4:1 (effector: target). K562 cells are added at a ratio of 20:1 (K562) to reduce natural killer cell background lysis. Non-specific lysis is assessed using cells labeled with ^51Cr as described above, but not bearing the epitope cell line. Controls to measure spontaneous release and maximum release of ^51Cr are included in duplicate. After incubation at 37° C. for six hours, the plates are centrifuged and the supernatants counted to measure ^51Cr release. Percent specific lysis is calculated using the following equation: […]
# The ability of these IgE peptides in eliciting CTL responses was evaluated in vitro. As previously described, Drosophila cells transfected with MHC class I plus B7-1 and ICAM-1 are potent antigen presenting cells (APC) in activation of resting naïve CD8 T cells in vitro. Resting naïve CD8 T cells were purified from mouse lymph nodes and cultured with peptide loaded Drosophila cells transfected with L^d or D^b plus B7-1 and ICAM-1 in the absence of cytokines. IL-2 (20units/ml) was added at Day 3 and every other day thereafter. The CTL activity towards peptides loaded RMAS (K^b, D^b) cells or RMAS-L^d cells were measured on Day 9.
# [2] = target: T1, D^b class I molecules (Mus musculus, UniProt P01899); assay: MHC class I stabilization assay on TAP- RMAS cells (H-2^b), flow cytometry; format: binding; details: for Stabilization of MHC: D^b, ratio of fluorescence intensity (with peptide - without peptide)/without peptide; for Binding to / stabilization of D^b, in words: MHC class I stabilization assay, RMAS cells
# T1 construct: Antigen-transporting deficient (TAP^−) RMAS cells (H-2^b); endogenous in cells; host or cells: RMA-S (TAP 2 deficient, H-2^b)
# T1 sequence (P01899 25-362): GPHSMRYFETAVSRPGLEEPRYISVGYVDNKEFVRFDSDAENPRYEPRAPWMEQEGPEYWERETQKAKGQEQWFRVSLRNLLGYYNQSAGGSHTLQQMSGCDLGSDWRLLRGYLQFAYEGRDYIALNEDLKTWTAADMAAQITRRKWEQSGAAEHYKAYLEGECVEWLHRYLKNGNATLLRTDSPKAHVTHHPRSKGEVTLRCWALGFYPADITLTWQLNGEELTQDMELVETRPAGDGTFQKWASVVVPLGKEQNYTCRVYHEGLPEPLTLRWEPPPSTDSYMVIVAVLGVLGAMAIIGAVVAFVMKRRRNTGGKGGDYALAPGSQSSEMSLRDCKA
# T1 sequence (P01887 21-119 partner): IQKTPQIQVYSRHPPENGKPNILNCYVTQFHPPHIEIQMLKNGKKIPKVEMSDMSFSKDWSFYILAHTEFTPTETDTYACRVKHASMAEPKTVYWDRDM
# Description: (§2) TAP 2 deficient RMA.S cells (FIG. 11B) or L^d transfected RMA.S cells (FIG. 11A) were incubated with indicated concentration of peptides at 28° C. overnight and then incubated at 37° C. for two to four hours. The cells were harvested and stained with mAb specific for L^d (FIG. 11B) or for D^b (FIG. 11A) and analyzed with FACScan.
# (§3) The binding capacity of these synthetic peptides to L^d and D^b class I molecules were tested in an MHC class I stabilization assay (Cai et al. (1996) supra). Antigen-transporting deficient (TAP^−) RMAS cells (H-2^b) or L^d transfected RMAS (RMAS-L^d) cells were cultured in the presence of a titrated concentration of peptides at 27° C. After overnight culturing at 27° C., these cells were further cultured for two hours at 37° C. and the surface expression of L^d or D^b on the cells were analyzed by flow cytometry. […] Of the five peptides predicted bind to D^b, only IgE44 binds Db strongly and two peptides, IgE16 and IgE125, bind D^b weakly. […] Thus, a total of six peptides were identified that bind to either L^d or D^b MHC class I molecules.
# [3] = test system: peptides loaded RMAS-L^d cells; assay: In vitro generation of IgE peptide specific CTLs, 51Cr release against peptide loaded RMAS-L^d cells; format: cell-based; details: naive mouse CD8 T cells, Drosophila APC with L^d, B7-1, ICAM-1; Day 9
# Description: as §1
# The ability of these IgE peptides in eliciting CTL responses was evaluated in vitro. […] The CTL activity towards peptides loaded RMAS (K^b, D^b) cells or RMAS-L^d cells were measured on Day 9.
# [4] = target: T2, L^d class I molecules (Mus musculus, UniProt P01897); assay: MHC class I stabilization assay on L^d transfected RMAS cells, flow cytometry; format: binding; details: for Stabilization of MHC: L^d, ratio of fluorescence intensity (with peptide - without peptide)/without peptide; for Binding to L^d, in words: MHC class I stabilization assay, RMAS-L^d cells
# T2 construct: expressed in transfected cells; host or cells: RMA-S (RMAS-L^d), TAP-deficient
# T2 sequence (P01897 25-362): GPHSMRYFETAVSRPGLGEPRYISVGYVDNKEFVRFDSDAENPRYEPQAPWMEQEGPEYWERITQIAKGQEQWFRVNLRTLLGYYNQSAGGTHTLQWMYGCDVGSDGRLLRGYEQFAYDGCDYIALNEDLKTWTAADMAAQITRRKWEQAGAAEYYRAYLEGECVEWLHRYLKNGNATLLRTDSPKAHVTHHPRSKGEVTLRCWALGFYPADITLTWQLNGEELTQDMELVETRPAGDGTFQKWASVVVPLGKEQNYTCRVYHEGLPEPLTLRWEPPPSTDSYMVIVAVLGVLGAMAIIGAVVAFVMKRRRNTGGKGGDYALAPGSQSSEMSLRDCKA
# T2 sequence (P01887 21-119 partner): T1 sequence (P01887 21-119 partner)
# Description: as §2, §3
# [5] = test system: T2 cells loaded with indicated peptides; assay: CTL activity generated from PBMC of different donors with IgE peptides on transfected Drosophila cells, chromium release; format: cell-based, human; details: x: number of donor from whom anti-IgE CTL was generated; N: number of donor tested
# Description: CD8 T cells were purified from individual donors and cultured with Drosophila cells transfected with HLA-A2, hB7-1, hB7-2, hICAM-1 and hLFA-3 molecules in the presence of indicated peptides. After being cultured for six days, low doses of hIL-2 was added to the culture and re-stimulated with peptides loaded autologous adherent cells for an additional seven days. The CTLs were then harvested and the specific killing activities were tested with ^51Cr labeled T2 cells that loaded with indicated peptides FIGS. 9A through 9D by a standard chromium release assay. [table]
sequence,measurement,setting,value
GHILNDVSV (Peptide antigen) [IgE 125],"Specific CTL activity induced by the peptide, D^b restricted",[1],No specific CTL activity
same,Stabilization of MHC,[2],+ (less than two-fold is scored as “+”)
same,"Binding to / stabilization of D^b, in words",[2],weakly
GSNQGFFIF (Peptide antigen) [IgE 366],"Specific CTL activity induced by the peptide, L^d restricted",[3],inducing L^d restricted CTLs
same,Stabilization of MHC,[4],++^c (more than two fold is calculate as “++”)
same,"Binding to L^d, in words",[4],strongly
same,"Specific CTL activity induced by the peptide, D^b restricted",[1],induce D^b restricted CTLs
same,"Binding to / stabilization of D^b, in words",[2],^cIgE 366 also stabilizes D^b class I molecules.
same,"Binding to / stabilization of D^b, in words",[2]; listed as IgE366,binds both L^d and D^b
HSTIQLYCF (Peptide antigen) [IgE 114],Stabilization of MHC,[4],+ (less than two-fold is scored as “+”)
same,"Binding to L^d, in words",[4],weakly
KPCKGTASM (Peptide antigen) [IgE 11],"Specific CTL activity induced by the peptide, L^d restricted",[3],induces antigen specific CTLs
same,Stabilization of MHC,[4],++ (more than two fold is calculate as “++”)
same,"Binding to L^d, in words",[4],strongly
MSTVNFPAL (Peptide antigen) [IgE 44],"Specific CTL activity induced by the peptide, D^b restricted",[1],specifically lysed
same,Stabilization of MHC,[2],++ (more than two fold is calculate as “++”)
same,"Binding to / stabilization of D^b, in words",[2],strongly
QMFTCRVAHT (Peptide antigen) [IgE 887],Specific Killing (x/N),[5],1/4
QVMDVDLSTA (Peptide antigen) [IgE 898],Specific Killing (x/N),[5],3/4
SLLTVSGAWA (Peptide antigen) [IgE 876],Specific Killing (x/N),[5],0/5
SLNGTTMTL [IgE 47],Specific Killing (x/N),[5],7/8
TASMTLGCL (Peptide antigen) [IgE 16],"Specific CTL activity induced by the peptide, D^b restricted",[1],No specific CTL activity
same,Stabilization of MHC,[2],+ (less than two-fold is scored as “+”)
same,"Binding to / stabilization of D^b, in words",[2],weakly
TLACLIQNFM (Peptide antigen) [IgE 895],Specific Killing (x/N),[5],3/4
TLTVTSTLPV (Peptide antigen) [IgE 884],Specific Killing (x/N),[5],8/8
WLEDGQVMDV (Peptide antigen) [IgE 883],Specific Killing (x/N),[5],1/5
WLSDRTYTC (Peptide antigen) [IgE 185],Specific Killing (x/N),[5],0/8
WVDNKTFSV [IgE 96],Specific Killing (x/N),[5],3/8
YATISLLTV (Peptide antigen) [IgE 890],Specific Killing (x/N),[5],4/5
